Holding throughout (assay): NCI anticancer screen, dose series, 48 h
Experiment [1] relates to RPMI-8226 leukemia.
The subject of experiment [2] is DU-145 prostate.
In experiment [3] the test system is UACC-62 melanoma.
Experiment [4] concerns A549 NSCLC.
In experiment [5] the test system is IGROV1 ovarian.
In experiment [6] the test system is RXF 393 renal.
The subject of experiment [7] is OVCAR-3 ovarian.
Experiment [8] has as its system MDA-MB-231 breast.
For experiment [9], the system named is PC-3 prostate.
Experiment [10] relates to LOX IMVI melanoma.

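1) Cells in 96-well plates. 2) Compound, 48 h, 5 concentrations. 3) Linear interpolation between surrounding doses. 4) Unreached endpoint = highest concentration. Abbreviation: GI50, concentration required for 50% inhibition of growth. TGI: concentration producing complete growth inhibition.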

In the case of `Cn1ncc2c(/N=C/c3cccs3)[nH]c(=S)nc21`, the GI50 in experiment [1] is 31.6 µM; in experiment [2], 25.6 µM; in experiment [3], 19.6 µM; in experiment [4], 47.4 µM; in [5], > 61.2 µM; in experiment [6] it was 26.2 µM. Also, the GI50 was 29.2 µM in experiment [7], 20.3 µM in [8], 40.7 µM in [9] and 36.4 µM in [10]. The TGI in experiment [1] is > 100 µM; in experiment [2] it was > 70.5 µM; in experiment [3], 52.4 µM; in [4], > 100 µM; in experiment [5], > 100 µM; in [6], > 73.3 µM. Moreover, the TGI is > 76.7 µM in experiment [7], > 67.5 µM in [8], > 100 µM in experiment [9] and > 100 µM in experiment [10].
Regarding `COc1ccc2c(c1)CCc1c(-c3noc4c3CCc3cc(OC)ccc3-4)noc1-2`, the TGI in experiment [1], in [2], in [3], in [4], in [5] and in experiment [6] was > 100 µM each time. Also, the TGI in experiment [7], in [8], in experiment [9] and in experiment [10] was > 100 µM in each case.
For `COc1ccc(-c2cnc3ccnn3c2-c2cc(OC)c(OC)c(OC)c2)cc1`, the GI50 in experiment [1] was 4.14 µM; in experiment [2] it was 4.23 µM; in [3], 2.15 µM; in experiment [4] it was 3.85 µM; in experiment [5], 5.25 µM; in [6], 2.6 µM. Besides, the GI50 in experiment [7] is 2.51 µM; in experiment [8] it was 4.3 µM; in [9], 2 µM; in [10] it was 5.96 µM. The TGI in experiment [1], in experiment [2], in [3], in [4], in experiment [5] and in experiment [6] was > 100 µM each time. In addition, the TGI in [7] is 7.91 µM; in experiment [8], 65.7 µM; in [9], > 100 µM; in experiment [10], > 100 µM.
As for `C/C(CC(=O)NNc1ccc([N+](=O)[O-])cc1)=N\Nc1ccc([N+](=O)[O-])cc1`, the GI50 was 7.91 µM in experiment [1]; 17.4 µM in experiment [2]; 1.55 µM in experiment [3]; 5.42 µM in experiment [4]; 14.1 µM in experiment [5]; 17.7 µM in [6]. Besides, the GI50 in experiment [7] was 8.03 µM; in experiment [8], 2.12 µM; in experiment [9] it was 4.26 µM; in experiment [10], 2.72 µM. Also, the TGI in experiment [1] is > 100 µM; in [2], 89.9 µM; in experiment [3], 19 µM; in [4] it was > 100 µM; in experiment [5], > 100 µM; in experiment [6], 46.5 µM. The TGI in experiment [7] is 31.1 µM; in [8] it was 19.7 µM; in [9], > 100 µM; in experiment [10] it was > 100 µM.
Regarding `NC1=C(Cl)C(=O)c2ccc(S(N)(=O)=O)cc2C1=O`, the GI50 is 0.354 µM in experiment [1]; 0.132 µM in experiment [2]; 0.135 µM in [3]; 0.16 µM in experiment [4]; 0.681 µM in [5]; 0.286 µM in [6]. For the same compound, the GI50 in [7] was 0.198 µM; in [8] it was 0.332 µM; in experiment [9] it was 0.314 µM; in experiment [10], 0.0367 µM. Further, the TGI in [1] stood at 2.04 µM; in experiment [2], 0.273 µM; in experiment [3], 0.273 µM; in experiment [4] it was 0.358 µM; in experiment [5], 1.57 µM; in experiment [6], 0.903 µM. The TGI in [7] was determined as 0.454 µM; in experiment [8], 2.7 µM; in experiment [9], 1.5 µM; in experiment [10], 0.182 µM.
Turning to `O=C(O)C1NCCc2c1[nH]c1ccccc21` (centres undefined), the TGI was > 10 µM in experiment [1]; > 10 µM in experiment [2]; > 100 µM in experiment [3]; > 100 µM in experiment [4]; > 100 µM in experiment [5]; > 10 µM in experiment [6]. Further, the TGI is > 100 µM in [7], > 10 µM in experiment [8], > 10 µM in experiment [9] and > 100 µM in experiment [10]. For the same compound, the GI50 in [3], in experiment [4], in experiment [5] and in experiment [7] was > 100 µM throughout.
Regarding `CN(C)CCCN(c1nc(C(Cl)(Cl)Cl)ns1)c1nc(C(Cl)(Cl)Cl)ns1`, the GI50 in experiment [1] is 2.19 µM; in experiment [2] it was 2.75 µM; in experiment [3], 2.1 µM; in experiment [4], 1.63 µM; in experiment [5], 2.27 µM; in experiment [6] it was 1.81 µM. Also, the GI50 in experiment [7] is 2.01 µM; in experiment [8], 1.19 µM; in experiment [9] it was 1.94 µM; in experiment [10], 1.58 µM. Besides, the TGI in [1] was 5.35 µM; in experiment [2], 6.79 µM; in experiment [3] it was 4.91 µM; in experiment [4], 3.78 µM; in experiment [5], 4.92 µM; in experiment [6], 3.21 µM. The TGI in experiment [7] worked out at 4.09 µM; in experiment [8], 2.6 µM; in experiment [9], 5.14 µM; in experiment [10], 3.01 µM.
For `CN[C@]12CC3(C=CC(=O)C=C3)O[C@@]1(Cc1ccc(OC)cc1)N(C)C(=O)N2`, the GI50 in [1] is 1.63 µM; in experiment [2], 4.3 µM; in [3] it was 1.46 µM; in experiment [4], 3.11 µM; in experiment [5], 1.78 µM; in experiment [6] it was 1.82 µM. Also, the GI50 in experiment [7] is 0.793 µM; in [8], 4.2 µM; in experiment [9], 0.695 µM; in experiment [10] it was 1.56 µM. Besides, the TGI came to 3.32 µM in experiment [1]; 14.9 µM in experiment [2]; 3.34 µM in experiment [3]; 14 µM in experiment [4]; 4.1 µM in experiment [5]; 3.6 µM in experiment [6]. Further, the TGI in experiment [7] worked out at 4.14 µM; in [8], 15.1 µM; in experiment [9], 4.31 µM; in experiment [10] it was 3.2 µM.
On to `COc1ccc(/C(C)=C(\c2ccc(Cl)cc2)c2ccc(OCCN3CCCC3)cc2)cc1F`, for which the GI50 was 3.57 µM in experiment [1]; 3.9 µM in experiment [2]; 3.1 µM in experiment [3]; 3.01 µM in [4]; 3.17 µM in experiment [5]; 3.19 µM in [6]. The GI50 in experiment [7] was 3.93 µM; in experiment [8] it was 3.56 µM; in experiment [9], 3.04 µM; in experiment [10], 1.04 µM. The TGI in experiment [1] stood at 9.23 µM; in [2], 8.28 µM; in experiment [3], 6.32 µM; in experiment [4], 7.01 µM; in experiment [5], 7.21 µM; in experiment [6], 6.49 µM. The TGI was 8.38 µM in [7], 6.97 µM in experiment [8], 6.71 µM in experiment [9] and 3.66 µM in experiment [10].
For `Cc1cccc2c(N=Nc3ccc(S(N)(=O)=O)cc3)c(O)[nH]c12`, the GI50 in experiment [1], in experiment [2], in experiment [3], in experiment [4], in experiment [5] and in [6] was > 25 µM throughout. Further, the GI50 in [7], in [8], in experiment [9] and in [10] was > 25 µM throughout. In addition, the TGI in experiment [1], in [2], in experiment [3], in [4], in experiment [5] and in experiment [6] was > 25 µM in each case. Moreover, the TGI in experiment [7], in [8], in [9] and in [10] was > 25 µM in each case.
As for `O=C(Nc1n[nH]c2nc(-c3ccco3)ccc12)C1CC1`, the GI50 in [1], in [2], in experiment [3], in experiment [4], in experiment [5] and in experiment [6] was > 25 µM each time. Further, the GI50 in experiment [7], in [8], in experiment [9] and in [10] was > 25 µM throughout. The TGI in experiment [1], in [2], in experiment [3], in experiment [4], in experiment [5] and in experiment [6] was > 25 µM in each case. Also, the TGI in experiment [7], in experiment [8], in experiment [9] and in [10] was > 25 µM each time.
For `C=C1C(=O)O[C@@H]2C(=O)[C@@H](C)[C@@H]3C=CC(=O)[C@@]3(C)[C@@H](OC(=O)/C(C)=C\C)[C@H]12`, the TGI in [1] is 1.25 µM; in experiment [2], 3.5 µM; in experiment [3], 2.95 µM; in [4], 32.6 µM; in [5], 3.28 µM; in experiment [6], 1.47 µM. The TGI in experiment [7] amounted to 3.67 µM; in [8], 3.6 µM; in experiment [9] it was 6.04 µM; in [10] it was 1.6 µM.
Regarding `O=C1/C(=C\C(Cl)=C/c2ccc([N+](=O)[O-])cc2)SC(=S)N1CCc1ccc(O)cc1`, the GI50 in [1] is 0.268 µM; in experiment [2], 0.471 µM; in [3], 0.566 µM; in experiment [4] it was 1.6 µM; in [5], 0.512 µM; in experiment [6], 0.472 µM. Besides, the GI50 in experiment [7] was 0.4 µM; in [8] it was 0.449 µM; in [9], 0.269 µM; in experiment [10], 0.187 µM. Besides, the TGI in [1] was determined as 0.884 µM; in experiment [2], 1.72 µM; in experiment [3], 1.86 µM; in experiment [4], 8.79 µM; in experiment [5], 1.68 µM; in [6] it was 1.11 µM. For the same compound, the TGI was determined as 1.43 µM in [7], 2.03 µM in experiment [8], 0.845 µM in experiment [9] and 0.387 µM in experiment [10].
Take `NC(CNO)C(=O)O` (centres undefined): the TGI in [1], in [2], in [3], in [4], in experiment [5] and in experiment [6] was > 100 µM in each case. The TGI in experiment [7], in experiment [8], in experiment [9] and in experiment [10] was > 100 µM throughout.
Take `c1cc(OCCN2CCCCCC2)ccc1CNc1ccc2nc(CCC3CCCCC3)[nH]c2c1`: the GI50 was 1.5 µM in experiment [1]; 3.9 µM in experiment [2]; 1.84 µM in experiment [3]; 3.05 µM in experiment [4]; 2.04 µM in experiment [5]; 1.53 µM in experiment [6]. Besides, the GI50 in experiment [7] was 1.89 µM; in [8], 1.56 µM; in [9] it was 1.94 µM; in experiment [10] it was 1.74 µM. For the same compound, the TGI in experiment [1] came out at 3.79 µM; in [2], 14.6 µM; in [3], 3.35 µM; in experiment [4], 11 µM; in [5], 7.31 µM; in [6], 4.4 µM. The TGI in [7] came out at 4.25 µM; in experiment [8], 2.97 µM; in experiment [9], 4.84 µM; in [10], 3.2 µM.
Regarding `CCOC(=O)c1c(C)nc2ccc(Cl)cc2c1-c1ccccc1`, the GI50 in [1] was 15.9 µM; in [2], 31.6 µM; in [3], 10.7 µM; in experiment [4], 25.6 µM; in experiment [5], 16.6 µM; in [6] it was 17.3 µM. The GI50 is 19 µM in experiment [7], 17.1 µM in experiment [8], 20 µM in [9] and 17.7 µM in experiment [10]. Besides, the TGI in [1] is 40 µM; in experiment [2] it was > 100 µM; in experiment [3], 26.6 µM; in experiment [4] it was > 100 µM; in experiment [5] it was 61.1 µM; in [6], 47.4 µM. For the same compound, the TGI in [7] stood at 43.1 µM; in experiment [8] it was 38.4 µM; in [9], 65.9 µM; in [10], 37.8 µM.

The values are drawn from PubChem BioAssay (NCI).
